In paper PMC8196787, “Design and Pharmacodynamics of Recombinant Fungus Defensin NZL with Improved Activity against Staphylococcus hyicus In Vitro and In Vivo” (International Journal of Molecular Sciences, 2021):
Values after ≈ are worked out from the molar mass of the structure shown. Values joined by “and” are separate entries in the source; they are usually repeats but may differ in a detail not shown here. Equal values may be shown once. Read-outs that look alike come from different tables or passages of the source. Positions of bridges follow the written chain, without caps; N, C: chain ends. Residues, ends and D or L forms follow the SMILES beside them.

Tests used:
S. hyicus NCTC 10350 [1] = experiment: Time-killing curves; format: cell-based; settings: 2× MIC; at 24 h
Experimental: Time-kill curves were performed to assess the bactericidal rates of peptides against S. hyicus NCTC 10350 [25]. […] The samples were taken at regular intervals for colony counting. Cells treated with PBS and CRO were used as the negative control and positive control.

S. hyicus NCTC 10350 [2] = experiment: Mouse peritonitis model, survival; format: in vivo; settings: 30 mg/kg and 60 mg/kg i.p. at 2 h and 8 h post-infection, compared with NZL 5 mg/kg and 10 mg/kg; 7 days
Experimental: The mice (6 mice/group) were intraperitoneally infected with the exponential phase S. hyicus NCTC 10350 cells (1 × 10^9 CFU/mL, 1 mL) to establish a mouse peritonitis model. […] Survival of mice was recorded daily for 7 days.

S. hyicus NCTC 10350 [3] = experiment: Mouse peritonitis model, bacterial translocation; format: in vivo; settings: 60 mg/kg; 24 h post-treatment; mean, n = 5
Experimental: (§1) Likewise, mice (15 mice/group) were injected with the exponential phase S. hyicus NCTC 10350 cells (1 × 10^9 CFU/mL, 1 mL) and treated with 10 mg/kg peptides or 60 mg/kg CRO. After 2 and 24 h post-treatment, sera were collected to test the levels of cytokines using enzyme linked immunosorbent assay (ELISA) kit. To evaluate bacterial translocation, organs were harvest from mice at 24-h post-treatment for colony counting; then, organs were removed from mice at 5 d post-treatment and observed through a light microscope to assess organ injury. The uninfected mice, the treated mice with CRO or PBS were served as the blank control, positive and negative control, respectively.

TNF-α = experiment: Mouse peritonitis model, serum cytokine ELISA; format: in vivo; settings: 60 mg/kg
Experimental: as §1

IL-6 = experiment: Mouse peritonitis model, serum cytokine ELISA; format: in vivo; settings: 60 mg/kg
Experimental: as §1

IL-1β = experiment: Mouse peritonitis model, serum cytokine ELISA; format: in vivo; settings: 60 mg/kg
Experimental: as §1

[4] = test system: intracellular S. hyicus NCTC 10350 in Hacat cells; format: cell-based; settings: 24 h treatment, mean, n = 3
Experimental: Hacat cells (2.5 × 10^5 cells/mL) were dispensed into a 12-well plate for 24 h. Besides, the mid-log phase S. hyicus NCTC 10350 (2.5 × 10^7 CFU/mL) were coincubated with Hacat cells for 0.5 h. Then, lysostaphin was supplemented to kill extracellular bacteria. Hereafter, cells were treated with peptides or CRO for 24 h and lysed with lysis buffer. The intracellular bacteria were processed for colony counting.

S. aureus ATCC 43300 = experiment: microbe, parasite or virus in culture; format: cell-based
Experimental: (§2) The microbroth dilution method was used to evaluate the MIC values of new derivative peptides. […] The MIC value was defined as the lowest concentration where no visible bacteria growth occurred after overnight incubation. CRO was used as the positive control. All assays were conducted in triplicate.

S. aureus ATCC 25923 = experiment: microbe, parasite or virus in culture; format: cell-based; settings: Staphylococcus aureus, ATCC25923, microbroth dilution, MHB, 37 °C, 16–20 h, triplicate, read-out: MIC
Experimental: as §2

S. hyicus NCTC 10350 [5] = experiment: microbe, parasite or virus in culture; format: cell-based; settings: Staphylococcus hyicus, NCTC10350, microbroth dilution, MHB, 37 °C, 16–20 h, triplicate, read-out: MIC
Experimental: as §2

S. hyicus ACCC 61734 = experiment: microbe, parasite or virus in culture; format: cell-based; settings: S. hyicus ACCC 61734 (clinical strain), microbroth dilution, MHB, 37 °C, 16–20 h, triplicate
Experimental: as §2

[6] = test system: isolated S. hyicus (n = 207); settings: n = 207 isolates, Japan; cited from earlier work
Excerpt: Staphylococcus hyicus is one of the opportunistic and commensal pathogens which can cause acute infections to animals and humans. It was reported that exfoliative toxins-producing S. hyicus is primarily known as the most common causative agent of exudative epidermitis in pigs, which occurs typically as an acute skin lesions characterized by sebaceous exudation, exfoliation, and vesicle formation. This disease with prominent morbidity and mortality occurs worldwide, resulting in considerable economic losses in the swine industry. To date, piglets infected with S. hyicus are fr ...

Q: For `CO/N=C(\C(=O)N[C@@H]1C(=O)N2C(C(=O)O)=C(CSc3nc(=O)c(=O)[nH]n3C)CS[C@H]12)c1csc(N)n1` [CRO, ceftriaxone, reference compound], which “Bacterial count at regrowth” value (S. hyicus NCTC 10350 [1]) is on record?
A: 5.65 Log10 CFU/mL

Q: What about the Survival rate (S. hyicus NCTC 10350 [2]) of the same molecule?
A: identical survival rates with NZL

Q: What about the “Bacterial counts in blood” value (S. hyicus NCTC 10350 [3]) of the same molecule?
A: 1.02 Log10 CFU/0.1 g

Q: What about the “Bacterial counts in kidneys” value (S. hyicus NCTC 10350 [3]) of the same molecule?
A: 4.69 Log10 CFU/0.1 g

Q: And the “Bacterial counts in livers” value (S. hyicus NCTC 10350 [3])?
A: 4.35 Log10 CFU/0.1 g

Q: What about the “Bacterial counts in lungs” value (S. hyicus NCTC 10350 [3]) of the same molecule?
A: 5.21 Log10 CFU/0.1 g

Q: And the “Bacterial counts in spleens” value (S. hyicus NCTC 10350 [3])?
A: 5.19 Log10 CFU/0.1 g

Q: What about the “Serum level of TNF-α” value (TNF-α; 2 h after treatment) of the same molecule?
A: 233.16 pg/mL

Q: And the “Serum level of TNF-α” value (TNF-α; 24 h after treatment)?
A: 3.43 pg/mL

Q: And the “Serum level of IL-6” value (IL-6; 2 h after treatment)?
A: 981.56 pg/mL

Q: What about the “Serum level of IL-6” value (IL-6; 24 h after treatment) of the same molecule?
A: 85.74 pg/mL

Q: And the “Serum level of IL-1β” value (IL-1β; 2 h after treatment)?
A: 94.75 pg/mL

Q: What about the “Serum level of IL-1β” value (IL-1β; 24 h after treatment) of the same molecule?
A: 11.60 pg/mL

Q: And the “Decrease of intracellular S. hyicus” value ([4]; 1× MIC, colony counting)?
A: 88.53%

Q: What about the “Decrease of intracellular S. hyicus” value ([4]; 5× MIC) of the same molecule?
A: 89.25%

Q: And the “Decrease of intracellular S. hyicus” value ([4]; 10× MIC)?
A: 83.87%

Q: What about the “Killing rate of intracellular S. hyicus” value ([4]; 1000× MIC) of the same molecule?
A: 97.6%

Q: And the MIC (S. aureus ATCC 43300; Staphylococcus aureus, ATCC43300, S. aureus ATCC 43300, microbroth dilution, MHB, 37 °C, 16–20 h, triplicate, read-out: MIC)?
A: 12.1 µM

Q: What about the MIC (S. aureus ATCC 43300; Staphylococcus aureus, ATCC43300, read-out: MIC) of the same molecule?
A: 8 µg/mL

Q: And the MIC (S. aureus ATCC 25923)?
A: 4 µg/mL and 6.04 µM

Q: And the MIC (S. hyicus NCTC 10350 [5])?
A: 8 µg/mL and 12.1 µM

Q: What about the MIC (S. hyicus ACCC 61734; Staphylococcus hyicus, ACCC61734, read-out: MIC) of the same molecule?
A: 4 µg/mL and 6.04 µM

Q: With `NC[C@H]1O[C@H](O[C@H]2[C@H](O)[C@@H](O[C@H]3O[C@H](CO)[C@@H](O)[C@H](N)[C@H]3O)[C@H](N)C[C@@H]2N)[C@H](O)[C@@H](O)[C@@H]1O` [kanamycin] as the molecule, how does the “Isolated S. hyicus resistant to the drug” value [6] read?
A: 19.8%

Q: With penicillin as the molecule, how does the “Isolated S. hyicus resistant to the drug” value [6] read?
A: 76.8%

Q: Which “Isolated S. hyicus resistant to the drug” value [6] does the source give for `CC[C@H]1OC(=O)[C@H](C)[C@@H](O[C@H]2C[C@@](C)(OC)[C@@H](O)[C@H](C)O2)[C@H](C)[C@@H](O[C@@H]2O[C@H](C)C[C@H](N(C)C)[C@H]2O)[C@](C)(O)C[C@@H](C)C(=O)[C@H](C)[C@@H](O)[C@]1(C)O` [erythromycin] here?
A: 56%

Q: With `CC1(C)S[C@@H]2[C@H](NC(=O)[C@H](N)c3ccccc3)C(=O)N2[C@H]1C(=O)O` [ampicillin] as the molecule, how does the “Isolated S. hyicus resistant to the drug” value [6] read?
A: 76.8%

Q: Which “Isolated S. hyicus resistant to the drug” value [6] does the source give for `O=C(N[C@H](CO)[C@H](O)c1ccc([N+](=O)[O-])cc1)C(Cl)Cl` [chloramphenicol] here?
A: 24.2%

Q: Which “Isolated S. hyicus resistant to the drug” value [6] does the source give for `C[C@H]1c2cccc(O)c2C(=O)C2=C(O)[C@]3(O)C(=O)C(C(N)=O)=C(O)[C@@H](N(C)C)[C@@H]3[C@@H](O)[C@@H]21` [doxycycline] here?
A: 1.4%

Q: Which MIC (S. aureus ATCC 43300; S. aureus ATCC 43300, microbroth dilution, MHB, 1 × 10^5 CFU/mL, 37 °C, 16–20 h, peptides 1–256 μg/mL, triplicate) does the source give for `CC[C@H](C)[C@@H]1NC(=O)[C@H](CO)NC(=O)[C@H](CCCCN)NC(=O)[C@@H]2CSSC[C@@H](C(=O)N[C@@H](Cc3ccc(O)cc3)C(=O)O)NC(=O)[C@H](CCCCN)NC(=O)[C@@H]3CSSC[C@H](NC(=O)[C@H](CCCNC(=N)N)NC(=O)[C@H]([C@@H](C)CC)NC(=O)[C@H](CC(=O)O)NC(=O)[C@H](CC(=O)O)NC(=O)[C@H](CCC(=O)O)NC(=O)[C@H](CO)NC(=O)[C@H](Cc4c[nH]c5ccccc45)NC(=O)[C@@H]4CCCN4C(=O)CNC(=O)[C@H](CC(N)=O)NC(=O)[C@@H](NC(=O)CNC(=O)[C@H](Cc4ccccc4)NC(=O)CN)CSSC[C@H](NC(=O)[C@H](Cc4ccc(O)cc4)NC(=O)CNC(=O)CNC(=O)[C@H](CCCCN)NC(=O)[C@H](Cc4ccc(O)cc4)NC(=O)CNC(=O)[C@H](CCCCN)NC1=O)C(=O)N[C@@H](C)C(=O)N[C@@H](CO)C(=O)N[C@@H](C)C(=O)NCC(=O)N[C@@H](Cc1ccccc1)C(=O)N[C@@H](C(C)C)C(=O)N3)C(=O)N[C@@H](Cc1c[nH]cn1)C(=O)N[C@@H](CC(N)=O)C(=O)N[C@@H](Cc1c[nH]cn1)C(=O)N2` [Peptide 8] (H-GFGCNGPWSEDDIRCHNHCKSIKGYKGGYCASAGFVCKCY-OH; disulfide 4-30, 15-37, 19-39; N-terminus and C-terminus assumed) here?
A: 64 µg/mL

Q: What about the MIC (S. hyicus ACCC 61734) of the same molecule?
A: 128 µg/mL (≈ 29.4 µM)
